Laboratory results from article PMC3676426 (European journal of clinical pharmacology, 2013).
Like-named read-outs stand apart in the source and are kept apart here. Each block holds one molecule with its values, some of them ahead of it.

How the values were obtained:
[1] = format: in vivo, human; conditions: atorvastatin 40 mg for five days, CGC/CGC, CGC/TTT
[2] = both, human, in vivo, po, 100 mg
[3] = mainly through active tubular secretion; cited from earlier work
[4] = single 600 mg dose of cyclosporine; cited from earlier work
clinical = conditions: both, human, in vivo, 100 mg; for AUC(0-inf): AUC0-∞; for CL renal: CLR; for half-life: t1/2
[5] = atorvastatin 80 mg; cited from earlier work
[6] = simvastatin 40 mg co-administered; cited from earlier work
[7] = simvastatin 80 mg; cited from earlier work

influence of ABCB1 diplotype on pharmacokinetic parameters [1]: not significantly affected
SMILES: CC(C)c1c(C(=O)Nc2ccccc2O)c(-c2ccccc2)c(-c2ccc(F)cc2)n1CCC1CC(O)CC(=O)O1 (stereo not drawn) [2-hydroxyatorvastatin lactone]

influence of ABCB1 diplotype on pharmacokinetic parameters [1]: not significantly affected
SMILES: CC(C)c1c(C(=O)Nc2ccccc2O)c(-c2ccccc2)c(-c2ccc(F)cc2)n1CCC(O)CC(O)CC(=O)O (stereo not drawn) [2-hydroxyatorvastatin]

influence of ABCB1 diplotype on pharmacokinetic parameters [1]: not significantly affected
SMILES: CC(C)c1c(C(=O)Nc2ccc(O)cc2)c(-c2ccccc2)c(-c2ccc(F)cc2)n1CCC1CC(O)CC(=O)O1 (stereo not drawn) [4-hydroxyatorvastatin lactone]

influence of ABCB1 diplotype on pharmacokinetic parameters [1]: not significantly affected
SMILES: CC(C)c1c(C(=O)Nc2ccc(O)cc2)c(-c2ccccc2)c(-c2ccc(F)cc2)n1CC[C@@H](O)C[C@@H](O)CC(=O)O [4-hydroxyatorvastatin]

influence of ABCB1 diplotype on pharmacokinetic parameters [1]: did not differ significantly
SMILES: CC(C)c1c(C(=O)Nc2ccccc2)c(-c2ccccc2)c(-c2ccc(F)cc2)n1CC[C@@H]1C[C@@H](O)CC(=O)O1 [Atorvastatin lactone, atorvastatin lactone]

Cmax [2]: 438 ± 152 ng/mL
AUC(0-inf) (clinical): 3220 ng·h/mL
CL renal (clinical): 254 mL/min
Cmax (clinical): 399 ng/mL
half-life (clinical): 7.4 ± 2.5 h
AUC(0-t) (clinical; po, AUC0-24): 3230 ± 1220 ng·h/mL
AUC(0-inf) (clinical; po): 3640 ± 1440 ng·h/mL
CL renal (clinical; po): 254 ± 176 mL/min
Cmax (clinical; po): 454 ± 180 ng/mL
half-life (clinical; po): 7.3 ± 3 h
SMILES: N[C@@H](CC(=O)N1CCn2c(nnc2C(F)(F)F)C1)Cc1cc(F)c(F)cc1F [Sitagliptin, sitagliptin]
drug excreted unchanged in the urine [3]: about 80%
effect of cyclosporine on Cmax [4]: modestly increased
effect of cyclosporine on overall plasma exposure [4]: did not have a significant effect

SMILES: Cn1c(=O)cc(N2CCC[C@@H](N)C2)n(Cc2ccccc2C#N)c1=O [alogliptin]
effect of atorvastatin on multiple-dose pharmacokinetics [5]: did not alter

SMILES: N#C[C@@H]1C[C@@H]2C[C@@H]2N1C(=O)[C@@H](N)C12CC3CC(CC(O)(C3)C1)C2 [saxagliptin]
increase of AUC by simvastatin [6]: 12%

SMILES: N#C[C@@H]1CCCN1C(=O)CNC12CC3CC(CC(O)(C3)C1)C2 [vildagliptin]
effect of simvastatin on multiple-dose pharmacokinetics [7]: did not alter
